The nature of one series: Tail flick test. The series is classed as in vivo, mouse. The settings on record: mice; for ED50: dose giving analgesic effect in 50% of the mice. The protocol: II.2. Assay Used: Tail Flick Test
a) Experimental Conditions
The mouse tail is placed in front of an infrared source. The light is focused on the ventral surface of the tail so as to produce a surface temperature of 55° C. As soon as the mouse moves the tail, the reaction time is then measured. The compounds studied are administered subcutaneously.
Three measurements are taken before administration of the product so as to have a baseline time. The percentage of mice in which analgesia has occurred is then represented by the number of mice having a reaction time which is at least double the baseline time divided by the total number of mice. The ED50 dose represents the concentration which gives 50% of mice in which analgesia has occurred.
[…]. We determined the ED50, which represents the dose which gives an analgesic effect in 50% of the mice in the “tail flick” model, for each product. […].

Series [1] is described as follows: Respiratory depression (blood O2 saturation). The series is classed as in vivo, rat. The settings on record: rats, subcutaneous; for effect on oxygen saturation (FIG. 5, B and C) / oxygen level (SO2): 5×ED50 and 10×ED50 doses; for oxygen level (SO2): between 30 and 90 min; for effect on O2 saturation (FIG. 5, A): ED50 dose. The protocol:
The respiratory depression was calculated in rats. The product is injected into the animals subcutaneously and, after a certain amount of time, an aliquot of blood is taken from the femoral artery via a catheter implanted beforehand. During the study, the animals are placed in a calm place. After the blood sample has been taken, the oxygen saturation (SO2) and the CO2 pressure (PCO2) are measured. The SO2 values are measured in % O2.

The target of a further series is μ1 receptor. The experiment in a line: Receptor affinity, [3H]DADLE binding in calf thalamus homogenate. To be noted: [3H]DADLE 0.7 nM with 10 nM DPDPE. The procedure:
(§1) Tissue homogenates are prepared from calf brains (thalamus for μ1 and μ2 and frontal cortex for delta). [^3H][D-Ala^2,D-Leu^5]enkephalin (DADLE) (0.7 nM) is incubated with 3 ml of tissue homogenate (15 mg of tissue per ml) in the presence of 10 nM of [D-Pen^2,D-Pen^5]enkephalin (DPDPE) and of increasing concentrations of free or vectorized M6G. Under these conditions, specific binding to μ1 binding sites is observed. For the μ2 receptor, [D-Ala^2, MePhe^4,Gly(ol)^5]enkephalin (DAMGO) (1 nM) is incubated with 3 ml of tissue homogenate in the presence of 5 nM [D-Ser2,Leu^5]enkephalin-Thr^6 (DSLET) and of increasing concentrations of free or vectorized M6G. For the delta receptor, the tissue is incubated with [^3H] [D-Pen^2,D-Pen^5]enkephalin in the presence of free or vectorized M6G. The nonspecific binding is determined by adding to the labeled ligands 1 μM of levallorphan.

In another series the target is T1, μ2 receptor (Bos taurus, UniProt P79350).
T1 construct: Tissue homogenates are prepared from calf brains; from tissue; host or cells: calf brain thalamus homogenate
The experiment in a line: Receptor affinity, DAMGO binding in calf thalamus homogenate. To be noted: DAMGO 1 nM with 5 nM DSLET. The procedure:
as §1

Another series concerns the target T2, delta receptor (Bos taurus, UniProt F1N083).
T2 construct: Tissue homogenates are prepared from calf brains; from tissue; host or cells: calf brain frontal cortex homogenate
The experiment in a line: Receptor affinity, [3H]DPDPE binding in calf frontal cortex homogenate. The procedure:
as §1

For series [2] the following is noted: systemic injection; cited from earlier work.
A short description of series [3]: In situ brain perfusion (penetration through the BBB). The settings on record: mouse, perfusion of 60 seconds in buffer. The class given is in vivo. An excerpt:
a) Experimental Conditions: In Situ Brain Perfusion
Mice (20-25 g, Iffa-Credo; l'Arbresle, France) are anesthetized. After exposure of the common carotid, the right external carotid artery is ligated at the level of the bifurcation with the internal carotid, and the common carotid is ligated between the heart and the site of the implantation of the catheter (polyethylene catheter, ID: 0.76). Said catheter, pre-filled with a heparin solution (100 units/ml) is inserted into the common carotid. The mice are perfused with a perfusion buffer (128 mM NaCl, 24 mM NaHCO3, 4.2 mM KCl, 2.4 mM NaH2PO4, 1.5 mM CaCl2, 0.9 mM MgSO4 and 9 mM D-glucose). This buffer is filtered and then a mixture containing 95% O2/5% CO2 is bubbled through in order to maintain the pH in the region of 7.4 and to supply the brain with oxygen during the perfusion.
The mice are perfused with the buffer containing the free M6G (compound 1: specific activity 84 mCi/mg) or the vectorized M6G (compound 2; specific activity 14.3 mCi/mg). Just before the start of the perfusion, the heart is stopped by sectioning the ventricles, in order to avoid reflux of the perfusate during the perfusion. The right hemisphere is then perfused at a rate of 10 ml/min for 60 seconds, after which time the mouse is decapitated. The amount of radioactivity in the right hemisphere is then measured and the brain penetration index (Kin) is calculated. […]

Read-outs that look alike come from different tables or passages of the source. Non-standard residues stand in square brackets, D forms with d. Residues, ends and D or L forms follow the SMILES beside them. *: point of attachment. X1 = CN1CC[C@]23c4c5ccc(O)c4O[C@H]2[C@@H](O[C@@H]2O[C@H](C(=O)NCCS*)[C@@H](O)[C@H](O)[C@H]2O)C=C[C@H]3[C@H]1C5; Mpa = O=C(O)CCS A value given as a limit tells only on which side of the number the result lay.

T2 sequence (F1N083 1-372): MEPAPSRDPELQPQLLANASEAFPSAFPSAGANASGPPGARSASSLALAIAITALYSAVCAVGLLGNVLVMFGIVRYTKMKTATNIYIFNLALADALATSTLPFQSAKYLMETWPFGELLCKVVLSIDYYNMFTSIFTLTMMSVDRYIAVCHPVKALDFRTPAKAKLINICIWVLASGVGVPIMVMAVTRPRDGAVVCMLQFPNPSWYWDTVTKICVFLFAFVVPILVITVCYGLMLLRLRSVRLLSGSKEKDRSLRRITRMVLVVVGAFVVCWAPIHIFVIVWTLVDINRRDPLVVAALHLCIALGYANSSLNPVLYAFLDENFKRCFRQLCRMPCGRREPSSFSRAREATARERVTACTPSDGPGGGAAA
T1 sequence (P79350 whole entry): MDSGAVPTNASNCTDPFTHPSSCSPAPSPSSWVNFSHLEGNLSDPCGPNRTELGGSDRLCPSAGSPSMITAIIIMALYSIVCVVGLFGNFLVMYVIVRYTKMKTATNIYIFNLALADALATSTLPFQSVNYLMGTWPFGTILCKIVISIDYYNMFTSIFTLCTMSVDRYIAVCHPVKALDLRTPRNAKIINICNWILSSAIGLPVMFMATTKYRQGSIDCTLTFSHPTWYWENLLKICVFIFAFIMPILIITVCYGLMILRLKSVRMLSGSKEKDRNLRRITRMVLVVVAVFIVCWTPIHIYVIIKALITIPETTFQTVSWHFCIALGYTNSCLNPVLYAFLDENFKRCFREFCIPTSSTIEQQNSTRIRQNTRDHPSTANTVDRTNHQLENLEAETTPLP

As usually defined, the ED50 is the dose that gives a 50% effect, or the effect in half of the subjects. Consider `CN1CC[C@]23c4c5ccc(O)c4O[C@H]2[C@@H](O)C=C[C@H]3[C@H]1C5` [Compound 3, Morphine], for which the median effective dose (ED50) in “Tail flick test” (Mus musculus, sc, subcutaneous, read-out: ED50) amounted to 11.6 µmol/kg. In addition, the ED50 in the series “Tail flick test” (Mus musculus, intravenous, read-out: ED50) turned out to be 15.4 µmol/kg. In addition, the “Duration of the effect” value in the series “Tail flick test” (intravenous) is recorded as 60 min. The “Duration of the effect” value in “Tail flick test” (subcutaneous) is 90 min. In series [1], the “effect on oxygen saturation (FIG. 5, B and C)” value (“effect on oxygen saturation” below) was “very significant decrease in the oxygen saturation”; the “oxygen level (SO2)” value is reported as approximately 50%; the “effect on O2 saturation (FIG. 5, A)” value was “small decrease in O2 saturation”.

Broadly, the Ki is the equilibrium dissociation constant of an inhibitor or competing ligand from its target. Lower therefore signals higher affinity. For the compound `CN1CC[C@]23c4c5ccc(O)c4O[C@H]2[C@@H](O[C@@H]2O[C@H](C(=O)O)[C@@H](O)[C@H](O)[C@H]2O)C=C[C@H]3[C@H]1C5` [Compound 1, morphine-6-glucuronide], in the series “Tail flick test” (intravenous), the “Duration of the effect” value was 90 min and the ED50 is more than 5.7 µmol/kg. Moreover, in the series “Tail flick test” (subcutaneous), the “Duration of the effect” value was found to be 150 min and the ED50 is 6.6 µmol/kg. Further, the Ki at μ1 receptor worked out at 2.67 nM. Further, at μ2 receptor, the Ki is 5.82 nM. The inhibition constant Ki at delta receptor was found to be 23 nM. Besides, in series [1], the “effect on oxygen saturation” value is on record as “very significant decrease in the oxygen saturation”; the “oxygen level (SO2)” value was approximately 50%; the “effect on O2 saturation (FIG. 5, A)” value is “no effect”. For the same compound, the “mortality (FIG. 5, C)” value in series [1] (10×ED50 dose, 60 min time point) was “caused the death of some animals”. Besides, the “analgesic activity compared with morphine” value in series [2] is “roughly the same analgesic activity”.

In the case of `CC(C)C[C@H](NC(=O)[C@H](CCCNC(=N)N)NC(=O)[C@H](CCCNC(=N)N)NC(=O)CCSSCCNC(=O)[C@H]1O[C@@H](O[C@H]2C=C[C@H]3[C@H]4Cc5ccc(O)c6c5[C@@]3(CCN4C)[C@H]2O6)[C@H](O)[C@@H](O)[C@@H]1O)C(=O)N[C@@H](CO)C(=O)N[C@@H](Cc1ccc(O)cc1)C(=O)N[C@@H](CO)C(=O)N[C@@H](CCCNC(=N)N)C(=O)N[C@@H](CCCNC(=N)N)C(=O)N[C@@H](CCCNC(=N)N)C(=O)N[C@@H](Cc1ccccc1)C(=O)O` [Compound 2] ([Mpa](X1)RRLSYSRRRF-OH; C-terminus assumed), the Ki at μ2 receptor amounted to 0.6 nM. In addition, the inhibition constant Ki at delta receptor was found to be 19 nM. Moreover, in series [3], the “increase in passage into the brain (Kin) versus free M6G (FIG. 4)” value is “approximately 100 fold”. Moreover, in series [1], the “effect on oxygen saturation” value is recorded as “no notable decrease”; the “effect on O2 saturation (FIG. 5, A)” value was “no effect”.

These data come from patent US20040248806A1, “Compounds comprising an analgesic molecule linked to a vector that can vectorise said molecule through the hematoencephalic barrier and pharmaceutical compositions containing same” (priority 2001, published 2004).
